# Earlier results in the PKSmart pharmacokinetics tables (Seal et al. 2025).
# Where a SMILES comes first, the peptide text is derived from it. Bridges are numbered along the chain shown (N, C = ends).
# Test: not given per row; by the article one of three: Lombardo et al. 2013, J Clin Pharmacol 53:178, doi 10.1177/0091270012440282; 'New Drugs at FDA', novel drug approvals for 2021 and 2022 (the article's reference 43); Yap, Li, Chen 2006, J Mol Graph Model 24:383, doi 10.1016
# Conditions: human; for clearance / Vd / half-life: in vivo; for fraction unbound: plasma
SMILES,clearance [mL/min/kg],also measured
N=C=N,20,–
COC(=O)C(c1ccccc1)[C@@H]1CCCCN1 (some centres not stated),9.44,–
C[C@](O)(CS(=O)(=O)c1ccc(F)cc1)C(=O)Nc1ccc(C#N)c(C(F)(F)F)c1,3.67,–
CN(C)CCC(c1ccccc1)c1ccccn1 (configuration not stated),2.14,–
COC[C@H]1CN=C(c2ccccc2Cl)c2cc(Br)ccc2N1C,11.1,–
O=C(O)CN(CCN(CC(=O)O)CC(=O)O)CC(=O)O,1.09,–
COc1cc(Cc2cnc(N)nc2N)cc(OC)c1Br,0.6,–
CO[C@]1(NC(O)=c2sc(=C(C(N)=O)C(=O)O)s2)C(=O)N2C(C(=O)O)=C(CSc3nnnn3C)CS[C@@H]21,0.63,–
C[C@]12CC[C@@H]3C4=C(CC[C@H]3[C@@H]1CC[C@@H]2O)CC(=O)CC4,26.7,–
O=c1[nH]c(=O)n([C@@H]2CCCO2)cc1F,0.98,–
C[C@@H]1COc2c(N3CCN(C)CC3)c(F)cc3c(=O)c(C(=O)O)cn1c23,2.58,–
C[C@@H](c1cc2ccccc2s1)N(O)C(N)=O,7.14,–
CN(C)CCOc1ccc(/C(=C(\CCCl)c2ccccc2)c2ccccc2)cc1,1.21,–
O=c1[nH]c2ccccc2n1C1CCN(CCCC(c2ccc(F)cc2)c2ccc(F)cc2)CC1,4.1,–
CC(C)N(CC[C@@](C(N)=O)(c1ccccc1)c1ccccn1)C(C)C,2.7,–
Cc1cc(O)c(C(=O)NC(C(=O)NC2C(=O)N3C(C(=O)O)=C(CSc4nnnn4C)CS[C@H]23)c2ccc(O)cc2)cn1 (some centres not stated),0.28,–
CCN1CC(C(=O)O)C(=O)c2ccc(-c3ccncc3)cc21 (configuration not stated),2,–
CN1CCN2c3ncccc3Cc3ccccc3[C@@H]2C1,8.25,–
CC(C(=O)O)c1ccc(-c2ccccc2)c(F)c1 (configuration not stated),0.35,–
C[C@H](O)C1C(=O)N2C(C(=O)[O-])=C(SC3Cn4cnc[n+]4C3)[C@@H](C)[C@@H]12 (some centres not stated),2.77,–
NC(C(=O)NC1C(=O)N2C(C(=O)O)=C(Cl)CC[C@@H]12)c1ccccc1 (some centres not stated),4.45,–
COc1ccc2c(c1)N[C@@H]([S@@+](O)Cc1ncc(C)c(OC)c1C)N2,3.81,–
[2H]C([2H])([2H])NC(=O)c1nnc(NC(=O)C2CC2)cc1Nc1cccc(-c2ncn(C)n2)c1OC,0.68,Vd: 2.33 L/kg; half-life: 10 h; fraction unbound: 0.14

SMILES,clearance [mL/min/kg],also measured
CN1c2c(oc(=O)n(-c3ccccn3)c2=O)-c2ccccc2S1(=O)=O,0.05,–
Cc1cccc(C)c1OC[C@@H](C)N,6.3,–
Nc1nc2c(ncn2CCC(CO)CO)c(=O)[nH]1,9.36,–
C[C@@H]1CCC[C@@H](C)N1CCC[C@@](O)(c1ccccc1)c1ccccn1,2.34,–
COc1cc2c(cc1OC)C(=O)C(CC1CCN(Cc3ccccc3)CC1)C2 (configuration not stated),2.53,–
Nc1nnc(-c2cccc(Cl)c2Cl)c(N)n1,0.51,–
NS(=O)(=O)c1cc2c(cc1Cl)N=CNS2(=O)=O,4.5,–
C[C@@H]1c2cccc(O)c2C(=O)C2=C(O)[C@]3(O)C(=O)C(C(N)=O)=C(O)[C@H](N(C)C)[C@H]3[C@H](O)[C@H]21,0.52,–
NCCCCC(NC(=O)C1CCCN1C(=O)C1CSSCC(NC(=O)CNC(=O)CNC(=O)CN)C(=O)NC(Cc2ccc(O)cc2)C(=O)NC(Cc2ccccc2)C(=O)NC(CCC(N)=O)C(=O)NC(CC(N)=O)C(=O)N1)C(=O)NCC(N)=O (configuration not stated) (H-GGGCYFQNCPKG-NH2; disulfide 4-9; configuration not given here),7.61,Vd: 0.11 L/kg; half-life: 0.9 h
O[P+](O)(O)C(Cl)(Cl)[P+](O)(O)O,2.2,–
CCCCC1(CCCC)CS(=O)(=O)c2ccc(N(C)C)cc2[C@@H](c2ccc(OCc3ccc(C[N+]45CCN(CC4)CC5)cc3)cc2)[C@H]1O,–,half-life: 1.6 h; fraction unbound: 0.09
COC(=O)Nc1c(N)nc(-c2nn(Cc3ccccc3F)c3ncc(F)cc23)nc1N,0.44,Vd: 0.73 L/kg; half-life: 30 h; fraction unbound: 0.02
CC[C@H](OC(C)=O)C(C[C@@H](C)N(C)C)(c1ccccc1)c1ccccc1,4.09,–
CN1CC[C@@]23c4c5ccc(O)c4OC2C(=O)CC[C@@H]3[C@@H]1C5 (some centres not stated),19.2,–
NC[C@H](CC(=O)O)c1ccc(Cl)cc1,2.72,–
C[C@]12C=CC(=O)C=C1CC[C@H]1[C@@H]3C[C@@H](O)[C@](O)(C(=O)CO)[C@@]3(C)C[C@@H](O)[C@@]12F,13.1,–
CCC(C)C(=O)O[C@@H]1C[C@@H](O)C=C2C=C[C@@H](C)[C@H](CC[C@H](O)C[C@H](O)CC(=O)O)[C@H]21 (some centres not stated),8.5,–
C[C@@H]1COc2c(N3CCN(C)CC3)c(F)c(C(=O)O)c3c(=O)ccn1c23,3.5,–
CCN1CCN(c2ccc(Nc3cc(N(C)C(=O)Nc4c(Cl)c(OC)cc(OC)c4Cl)ncn3)cc2)CC1,9.19,Vd: 26.7 L/kg; half-life: 33.5 h; fraction unbound: 0.03
C[C@H](CN1CCN(CCOCCO)CC1)CN1c2ccccc2Sc2ccccc21,17.5,–
CC(=O)NC(CCS)C(=O)O (configuration not stated),2.06,–
CNCC[C@H](Oc1ccccc1C)c1ccccc1,3.63,–
